Data taken from US20240092758A1, “IMIDAZOLO INDAZOLE COMPOUNDS AS JAK INHIBITORS” (Theravance Biopharma R&D IP, LLC, priority 2021, published 2024).

Columns and labels:
JAK1 = JAK1 (Homo sapiens (Human), UniProt P23458); assay: Biochemical JAK kinase assay (LanthaScreen), JAK1; conditions: for Ki: read-out: JAK1 pKi (converted)
Method in brief: (§1)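 LanthaScreen format: phospho-STAT1 (pTyr701) detected with 2 nM Tb antibody after 10 mM EDTA quench. Kinase step used Km-level ATP and 200 nM STAT1 peptide, 1 h at ambient after 1 h pre-incubation. Inhibition fitted to IC50, reported as pKi.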

JAK2 = JAK2 (Homo sapiens (Human), UniProt O60674); assay: Biochemical JAK kinase assay (LanthaScreen), JAK2; conditions: for Ki: read-out: JAK2 pKi (converted)
Chain of JAK2 (O60674 whole entry): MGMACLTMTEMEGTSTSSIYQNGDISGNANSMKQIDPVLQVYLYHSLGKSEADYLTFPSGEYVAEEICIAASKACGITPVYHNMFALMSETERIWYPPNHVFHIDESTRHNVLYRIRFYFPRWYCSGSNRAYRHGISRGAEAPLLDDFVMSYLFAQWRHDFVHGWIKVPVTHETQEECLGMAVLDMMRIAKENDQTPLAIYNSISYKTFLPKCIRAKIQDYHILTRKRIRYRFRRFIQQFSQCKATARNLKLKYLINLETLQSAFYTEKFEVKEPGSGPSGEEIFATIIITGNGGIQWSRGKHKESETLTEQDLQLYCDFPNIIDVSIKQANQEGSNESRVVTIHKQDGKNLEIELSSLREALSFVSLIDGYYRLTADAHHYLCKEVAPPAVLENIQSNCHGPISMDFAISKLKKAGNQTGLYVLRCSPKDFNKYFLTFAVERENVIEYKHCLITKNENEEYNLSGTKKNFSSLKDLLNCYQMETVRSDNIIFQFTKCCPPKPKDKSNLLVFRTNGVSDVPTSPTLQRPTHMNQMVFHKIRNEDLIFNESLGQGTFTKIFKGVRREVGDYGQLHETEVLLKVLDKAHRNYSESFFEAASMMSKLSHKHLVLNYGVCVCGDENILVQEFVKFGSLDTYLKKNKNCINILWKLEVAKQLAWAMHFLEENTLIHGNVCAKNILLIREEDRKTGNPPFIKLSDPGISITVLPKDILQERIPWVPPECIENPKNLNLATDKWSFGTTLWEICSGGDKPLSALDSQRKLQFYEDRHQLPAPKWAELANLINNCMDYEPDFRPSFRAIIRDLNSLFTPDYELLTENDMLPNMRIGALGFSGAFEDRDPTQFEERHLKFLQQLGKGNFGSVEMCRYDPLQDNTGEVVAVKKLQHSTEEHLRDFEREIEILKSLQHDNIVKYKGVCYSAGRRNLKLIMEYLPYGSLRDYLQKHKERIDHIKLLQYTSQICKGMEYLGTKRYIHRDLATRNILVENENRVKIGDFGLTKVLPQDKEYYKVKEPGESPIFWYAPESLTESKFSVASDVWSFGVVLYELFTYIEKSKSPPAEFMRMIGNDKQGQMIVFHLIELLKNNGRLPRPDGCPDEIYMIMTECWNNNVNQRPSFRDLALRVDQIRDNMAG
Method in brief: as §1

JAK3 = JAK3 (Homo sapiens (Human), UniProt P52333); assay: Biochemical JAK kinase assay (LanthaScreen), JAK3; conditions: read-out: JAK3 pKi (converted)
Chain of JAK3 (P52333 whole entry): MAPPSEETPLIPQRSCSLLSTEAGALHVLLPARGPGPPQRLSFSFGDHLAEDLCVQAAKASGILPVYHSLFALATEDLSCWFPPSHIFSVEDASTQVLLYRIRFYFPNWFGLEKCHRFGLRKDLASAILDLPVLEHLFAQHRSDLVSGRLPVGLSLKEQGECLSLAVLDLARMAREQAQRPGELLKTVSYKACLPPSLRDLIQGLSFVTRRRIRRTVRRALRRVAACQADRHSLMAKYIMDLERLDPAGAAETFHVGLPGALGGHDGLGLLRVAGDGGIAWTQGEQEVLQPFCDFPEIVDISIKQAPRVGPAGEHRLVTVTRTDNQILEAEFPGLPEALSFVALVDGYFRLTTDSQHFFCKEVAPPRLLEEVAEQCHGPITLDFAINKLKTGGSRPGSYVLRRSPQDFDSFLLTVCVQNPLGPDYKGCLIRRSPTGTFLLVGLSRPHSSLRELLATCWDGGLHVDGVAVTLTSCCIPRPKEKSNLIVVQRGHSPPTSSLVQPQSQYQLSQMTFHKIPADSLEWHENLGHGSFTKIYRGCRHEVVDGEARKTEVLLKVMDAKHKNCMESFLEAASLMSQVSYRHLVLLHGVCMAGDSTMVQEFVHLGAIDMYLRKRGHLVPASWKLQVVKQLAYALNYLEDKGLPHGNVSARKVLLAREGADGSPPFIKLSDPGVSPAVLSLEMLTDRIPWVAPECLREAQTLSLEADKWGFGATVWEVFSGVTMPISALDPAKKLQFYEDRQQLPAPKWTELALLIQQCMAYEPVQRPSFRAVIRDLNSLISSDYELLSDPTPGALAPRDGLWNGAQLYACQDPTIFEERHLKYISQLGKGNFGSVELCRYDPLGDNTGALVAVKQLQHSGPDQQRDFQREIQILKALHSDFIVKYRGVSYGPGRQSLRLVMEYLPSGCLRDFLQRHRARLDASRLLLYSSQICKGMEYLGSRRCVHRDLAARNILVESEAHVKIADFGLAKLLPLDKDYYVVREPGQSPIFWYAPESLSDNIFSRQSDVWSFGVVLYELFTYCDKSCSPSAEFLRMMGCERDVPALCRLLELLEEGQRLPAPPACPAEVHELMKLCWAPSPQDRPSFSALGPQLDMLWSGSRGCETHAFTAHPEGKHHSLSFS
Method: A panel of four LanthaScreen JAK biochemical assays (JAK1, 2, 3 and Tyk2) were carried in a common kinase reaction buffer (50 mM HEPES, pH 7.5, 0.01% Brij-35, 10 mM MgCl2, and 1 mM EGTA). Recombinant GST-tagged JAK enzymes and a GFP-tagged STAT1 peptide substrate were obtained from Life Technologies.
Serially diluted compounds were pre-incubated with each of the four JAK enzymes and the substrate in white 384-well microplates (Corning) at ambient temperature for 1 h. ATP was subsequently added to initiate the kinase reactions in 10 μL total volume, with 1% DMSO. The final enzyme concentrations for JAK1, 2, 3 and Tyk2 are 4.2 nM, 0.1 nM, 1 nM, and 0.25 nM respectively; the corresponding Km ATP concentrations used are 25 μM, 3 μM, 1.6 μM, and 10 μM; while the substrate concentration is 200 nM for all four assays. Kinase reactions were allowed to proceed for 1 hour at ambient temperature before a 10 μL preparation of EDTA (10 mM final concentration) and Tb-anti-pSTAT1 (pTyr701) antibody (Life Technologies, 2 nM final concentration) in TR-FRET dilution buffer (Life Technologies) was added. The plates were allowed to incubate at ambient temperature for 1 h before being read on the EnVision reader (Perkin Elmer). Emission ratio signals (520 nm/495 nm) were recorded and utilized to calculate the percent inhibition values based on DMSO and background controls.
For dose-response analysis, percent inhibition data were plotted vs. compound concentrations, and IC50 values were determined from a 4-parameter robust fit model with the Prism software (GraphPad Software). Results were expressed as pIC50 (negative logarithm of IC50) and subsequently converted to pKi (negative logarithm of dissociation constant, Ki) using the Cheng-Prusoff equation.
Test compounds having a lower Ki value or higher pKi value in the four JAK assays show greater inhibition of JAK activity.

TYK2 = TYK2 (Homo sapiens (Human), UniProt P29597); assay: Biochemical JAK kinase assay (LanthaScreen), Tyk2; conditions: read-out: Tyk2 pKi (converted)
Chain of TYK2 (P29597 whole entry): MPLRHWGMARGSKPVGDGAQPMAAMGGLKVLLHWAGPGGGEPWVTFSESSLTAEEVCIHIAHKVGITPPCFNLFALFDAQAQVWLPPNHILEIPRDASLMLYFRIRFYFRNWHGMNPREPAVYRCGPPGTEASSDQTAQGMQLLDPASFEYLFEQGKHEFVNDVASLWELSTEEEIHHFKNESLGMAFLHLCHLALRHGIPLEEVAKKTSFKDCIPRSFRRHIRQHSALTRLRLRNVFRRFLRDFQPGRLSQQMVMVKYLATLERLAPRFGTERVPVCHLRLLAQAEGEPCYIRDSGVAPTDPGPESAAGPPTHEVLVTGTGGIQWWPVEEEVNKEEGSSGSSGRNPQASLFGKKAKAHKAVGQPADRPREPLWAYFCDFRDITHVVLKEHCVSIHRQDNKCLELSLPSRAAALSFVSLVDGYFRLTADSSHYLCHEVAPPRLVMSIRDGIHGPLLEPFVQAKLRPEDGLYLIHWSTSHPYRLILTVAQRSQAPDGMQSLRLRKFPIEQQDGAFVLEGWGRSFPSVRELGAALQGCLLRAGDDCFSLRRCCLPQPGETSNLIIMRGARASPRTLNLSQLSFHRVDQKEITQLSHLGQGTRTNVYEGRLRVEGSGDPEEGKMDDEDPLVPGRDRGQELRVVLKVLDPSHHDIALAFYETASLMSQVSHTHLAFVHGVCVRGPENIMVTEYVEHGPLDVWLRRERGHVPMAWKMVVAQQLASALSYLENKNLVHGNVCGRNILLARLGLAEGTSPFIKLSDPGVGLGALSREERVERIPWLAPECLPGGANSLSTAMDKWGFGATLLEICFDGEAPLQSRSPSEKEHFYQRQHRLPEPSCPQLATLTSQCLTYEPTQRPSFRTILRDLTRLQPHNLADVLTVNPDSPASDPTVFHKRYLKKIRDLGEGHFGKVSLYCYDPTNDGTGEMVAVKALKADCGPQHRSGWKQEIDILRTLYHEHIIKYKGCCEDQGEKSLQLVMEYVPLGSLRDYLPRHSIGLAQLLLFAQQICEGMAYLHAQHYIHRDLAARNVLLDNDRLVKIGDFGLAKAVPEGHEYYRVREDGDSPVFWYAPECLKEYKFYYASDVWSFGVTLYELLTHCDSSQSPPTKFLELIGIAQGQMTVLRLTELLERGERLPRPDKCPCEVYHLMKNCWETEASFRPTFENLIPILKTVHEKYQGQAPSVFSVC
Method in brief: as §1

[1] = test system: IL-13 induced STAT6 phosphorylation in BEAS-2B human lung epithelial cells; assay: Cellular JAKI potency assay (BEAS-2B); assay type: cell-based; conditions: Homo sapiens, BEAS-2B, BEAS-2B cells, read-out: BEAS2B pIC50 (converted)
Method in brief: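 BEAS-2B cells were preincubated with compound (0.1% DMSO) in HBSS/HEPES/BSA for 1 h at 37 °C, then stimulated with IL-13 (80 ng/mL before addition) for 30 min. After lysis, pSTAT6 (Tyr641) was quantified by AlphaLISA SureFire; IC50 from a 4-parameter fit of percent inhibition, reported as pIC50.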

Chain of JAK1 (P23458 whole entry): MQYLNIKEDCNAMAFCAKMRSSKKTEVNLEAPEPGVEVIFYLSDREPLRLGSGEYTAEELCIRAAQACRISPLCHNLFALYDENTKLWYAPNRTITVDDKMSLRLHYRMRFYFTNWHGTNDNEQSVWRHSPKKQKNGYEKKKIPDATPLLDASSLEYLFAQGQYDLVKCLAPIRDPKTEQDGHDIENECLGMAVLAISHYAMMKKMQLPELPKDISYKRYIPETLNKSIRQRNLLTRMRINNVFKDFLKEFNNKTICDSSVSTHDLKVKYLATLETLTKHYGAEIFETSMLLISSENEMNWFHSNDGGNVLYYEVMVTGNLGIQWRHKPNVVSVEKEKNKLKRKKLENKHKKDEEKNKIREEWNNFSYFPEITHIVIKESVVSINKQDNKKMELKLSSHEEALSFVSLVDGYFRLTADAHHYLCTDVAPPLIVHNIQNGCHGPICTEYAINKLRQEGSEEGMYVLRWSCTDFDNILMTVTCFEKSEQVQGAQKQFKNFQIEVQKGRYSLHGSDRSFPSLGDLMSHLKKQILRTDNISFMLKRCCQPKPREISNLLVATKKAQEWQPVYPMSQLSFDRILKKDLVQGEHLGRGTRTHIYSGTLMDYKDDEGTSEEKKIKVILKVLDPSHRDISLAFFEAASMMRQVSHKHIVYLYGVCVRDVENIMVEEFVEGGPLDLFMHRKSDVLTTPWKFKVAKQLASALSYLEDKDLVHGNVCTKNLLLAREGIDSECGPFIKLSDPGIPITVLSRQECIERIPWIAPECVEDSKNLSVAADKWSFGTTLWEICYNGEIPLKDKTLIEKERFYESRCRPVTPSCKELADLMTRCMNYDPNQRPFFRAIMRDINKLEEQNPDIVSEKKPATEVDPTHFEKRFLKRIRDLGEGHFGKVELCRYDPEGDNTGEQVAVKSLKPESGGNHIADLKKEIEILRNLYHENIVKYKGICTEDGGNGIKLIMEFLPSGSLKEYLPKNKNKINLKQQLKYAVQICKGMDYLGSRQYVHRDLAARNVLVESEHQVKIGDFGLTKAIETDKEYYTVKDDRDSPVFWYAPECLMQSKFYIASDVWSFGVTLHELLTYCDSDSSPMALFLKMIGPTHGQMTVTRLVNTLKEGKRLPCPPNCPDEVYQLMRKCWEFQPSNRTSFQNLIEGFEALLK

Row | Structure (SMILES) | Ki (JAK1) [nM] | Ki (JAK2) [nM] | Ki (JAK3) [nM] | Ki (TYK2) [nM] | IC50 [1] [nM] | JAK1 pKi (JAK1) | JAK2 pKi (JAK2)
1 | CCc1cc(O)ccc1-c1ccc2c(-c3nc(C4=CCCN(C[C@@H]5COCCN5)C4)c[nH]3)n[nH]c2c1F [Example 196] | 1 to 10 | 0.1 to 1 | 0.1 to 1 | 10 to 100 | 31.6 to 100 |  | 
2 | CCc1cc(O)ccc1-c1ccc2c(-c3nc(C4=CCN(C5CCN(C)CC5)C4)c[nH]3)n[nH]c2c1 [Example 199] |  |  | 0.1 to 1 | 0.1 to 1 | 3.16 to 10 | A (A represents a pKi value ≥10 (Ki≤0.1 nM)) | A (A represents a pKi value ≥10 (Ki≤0.1 nM))
3 | CCc1cc(O)ccc1-c1ccc2c(-c3nc(C4=CCN(C[C@@H]5COCCN5)C4)c[nH]3)n[nH]c2c1F [Example 205] | 0.1 to 1 | 0.1 to 1 | 0.1 to 1 | 1 to 10 | 10 to 31.6 |  | 
4 | CCc1cc(O)ccc1-c1ccc2c(-c3nc(C4=CCN(CCN5CCOCC5)C4)c[nH]3)n[nH]c2c1F [Example 206] | 0.1 to 1 |  | 0.1 to 1 | 1 to 10 | 10 to 31.6 |  | A (A represents a pKi value ≥10 (Ki≤0.1 nM))
5 | CCc1cc(O)ccc1-c1ccc2c(-c3nc(C4=CCN(C5CCNC5)CC4)c[nH]3)n[nH]c2c1F (stereo not drawn) [Example 207] | 0.1 to 1 |  | 0.1 to 1 | 1 to 10 | 100 to 316 |  | A (A represents a pKi value ≥10 (Ki≤0.1 nM))
6 | CCc1cc(O)ccc1-c1ccc2c(-c3nc(C4=CCN(C5CCN(C)C5)CC4)c[nH]3)n[nH]c2c1F (stereo not drawn) [Example 208] | 0.1 to 1 |  | 0.1 to 1 | 1 to 10 | 10 to 31.6 |  | A (A represents a pKi value ≥10 (Ki≤0.1 nM))
7 | CCc1cc(O)ccc1-c1ccc2c(-c3nc(C4=CCN(CCN(C)C)CC4)c[nH]3)n[nH]c2c1F [Example 209] | 0.1 to 1 |  | 0.1 to 1 | 1 to 10 | 10 to 31.6 |  | A (A represents a pKi value ≥10 (Ki≤0.1 nM))
8 | CCc1cc(O)ccc1-c1ccc2c(-c3nc(C4=CCN(C5CCCN(C)C5)CC4)c[nH]3)n[nH]c2c1F (stereo not drawn) [Example 212] | 0.1 to 1 |  | 0.1 to 1 | 1 to 10 | 10 to 31.6 |  | A (A represents a pKi value ≥10 (Ki≤0.1 nM))
9 | CCc1cc(O)ccc1-c1ccc2c(-c3nc(C4=CCN(C(C)CN)CC4)c[nH]3)n[nH]c2c1F (stereo not drawn) [Example 213] | 0.1 to 1 | 0.1 to 1 | 0.1 to 1 | 10 to 100 | 100 to 316 |  | 
10 | CCc1cc(O)ccc1-c1ccc2c(-c3nc(C4=CCCN(C5CCNC5)C4)c[nH]3)n[nH]c2c1F (stereo not drawn) [Example 214] | 0.1 to 1 |  | 0.1 to 1 | 10 to 100 | 316 to 1000 |  | A (A represents a pKi value ≥10 (Ki≤0.1 nM))
11 | CCc1cc(O)ccc1-c1ccc2c(-c3nc(C4=CCCN(C5CCN(C)C5)C4)c[nH]3)n[nH]c2c1F (stereo not drawn) [Example 215] | 1 to 10 | 0.1 to 1 | 0.1 to 1 | 1 to 10 | 31.6 to 100 |  | 
12 | CCc1cc(O)ccc1-c1ccc2c(-c3nc(C4=CCCN(C5CCCN(C)C5)C4)c[nH]3)n[nH]c2c1F (stereo not drawn) [Example 217] | 1 to 10 | 0.1 to 1 | 0.1 to 1 | 1 to 10 | 31.6 to 100 |  | 
13 | CCc1cc(O)ccc1-c1ccc2c(-c3nc(C4=CCN(C5CCNC5)C4)c[nH]3)n[nH]c2c1F (stereo not drawn) [Example 218] |  |  | 0.1 to 1 | 1 to 10 | 31.6 to 100 | A (A represents a pKi value ≥10 (Ki≤0.1 nM)) | A (A represents a pKi value ≥10 (Ki≤0.1 nM))
14 | CCc1cc(O)ccc1-c1ccc2c(-c3nc(C4=CCN(C5CCN(C)C5)C4)c[nH]3)n[nH]c2c1F (stereo not drawn) [Example 219] | 0.1 to 1 |  | 0.1 to 1 | 0.1 to 1 | 10 to 31.6 |  | A (A represents a pKi value ≥10 (Ki≤0.1 nM))
15 | CCc1cc(O)ccc1-c1ccc2c(-c3nc(C4=CCN(CCN(C)C)C4)c[nH]3)n[nH]c2c1F [Example 220] | 0.1 to 1 |  | 0.1 to 1 | 1 to 10 | 10 to 31.6 |  | A (A represents a pKi value ≥10 (Ki≤0.1 nM))
